Measured values: patent publication US20140357688A1, “METHOD FOR INHIBITING EZH2 EXPRESSION IN BREAST CANCER CELLS” (Yung Shin Pharm. Ind. Co., Ltd., priority 2013, published 2014)

Assays:
[1] = system: MDA-MB-468 xenograft; test: MDA-MB-468 breast cancer xenograft animal model; type: in vivo, Nu/Nu mice
Experimental: MDA-MB-468 cells were used to inoculate Nu/Nu mice. (A, left) Tumor bearing mice were given vehicle (10 μl DMSO, CTL) or YC-1 (30 and 60 mg/kg/day) by ip treatment. (B, right) Tumor bearing mice were given vehicle (normal saline, CTL) or YC-1-succinate (YC-1-S; 20, 40, and 80 mg/kg/day) by oral administration. During treatment period, tumor volume and body weights of mice were measured once per 3 days. Data are expressed as mean of tumor volume (mm^3)±S.E.M. from 6 mice (YC-1 treatment) or 10 mice (YC-1-S treatment). Tumor weights (B) and body weights of mice (C) in control and YC-1/YC-1-S-treated groups were recorded.
Nu/Nu female mice (four weeks old) were from National Laboratory Animal Center, Taipei, Taiwan. Mice were maintained under procedures and guidelines from the Institutional Animal Care and Use of the National Health Research Institutes. MDA-MB-468 breast cancer cells (5×10^6 cells per mouse) were suspended in 0.1 ml of Matrigel solution (50%, v/v, Matrigel in 1×PBS) and inoculated into the mammary fat pads of nude mice. When the tumor masses reached to 100 mm^3, the tumor bearing mice were randomly divided into different groups for different dosage of YC-1 treatments. The mice were given by intraperitoneal injection with YC-1 or oral administration of YC-1-succinate. Tumor size and body weights of mice were measured once per 3 days and tumor volume (mm^3) was calculated as the equation: length×[…]. At the end of experiments, mice were sacrificed and tumor nodules were dissected and weighted. Tumor tissues were subjected to western blot analysis.

[2] = In vivo pharmacokinetic analysis
[3] = system: EZH2; test: EZH2 ubiquitination assay; type: cell-based, human; settings: inhibitor pretreatment, then 3 μM YC-1
Experimental: (A) Cells were pretreated with cyclohexamide (30 μM) for 1 h and followed by induction with vehicle (DMSO) or YC-1 (3 μM) for indicated time. Cells were harvested for detection of protein expression. (B)(C) Cells were incubated with 3 μM YC-1 for 6 h in the presence of vehicle, 3 μM MG-132 or 30 μM NH4Cl. Cells were harvested for detection of protein expression (B) or cell viability assay (C). The levels of protein expression were quantitated and shown under blots. (D) After treatment of 3 μM YC-1 for indicated time, cells were harvested and lysed for immunoprecipitation and western blot analysis described in Materials and Methods.
Cells were lysed with MLB buffer (25 mM HEPES, pH 7.5, 150 mM NaCl, 1% Igepal CA-630, 10 mM MgCl2, 1 mM EDTA, 2% glycerol, 1 mM Na3VO4, 1 mM NaF, 1 mM PMSF, 10 μg/ml of leupeptin, aprotinin, and pepstatin A). After sonication, cell lysates were centrifugated at 12,000×g for 10 min at 4° C. Supernatants were incubated with anti-EZH2 antibody (BD Biosciences) and protein A Sepharose beads (GE Health Care) overnight at 4° C. After washing with MLB buffer, precipitated proteins were boiled in 1× Laemmli sample buffer and then separated with SDS-PAGE. The ubiquitination levels of EZH2 were recognized by using anti-Ubiquitn monoclonal antibody.

[4] = system: ERK; test: Western blot of ERK phosphorylation in MDA-MB-468 cells; type: cell-based, human; settings: 3 μM YC-1 for 6 h in the presence of inhibitor
Experimental: (A) Cells were pretreated with KT5720 (3 μM), KT5823 (3 μM), NS2028 (30 μM), or ODQ (30 μM) and then stimulated with YC-1 (3 μM) for 6 h. Cells were collected for measurement of protein expression (left) or cell viability (middle). After 3 days of PKA knockdown, cells were induced with 3 μM YC-1 for 4 h. Cells were harvested and analyzed using western blotting (right). The levels of protein expression were quantitated and shown under blots. […] Cells were collected and analyzed protein expression (left) and cells viability (middle). p44/42 MAPK knockdown cells were treated with 3 μM YC-1 for 4 h and then detected protein expression (left). (C) Cells were treated with 3 μM YC-1 for indicated time. Cells were harvested for detection of protein phosphorylated activation. […] Six hours later, cells were harvested for EZH2 ubiquitination assay. (E) Cells were induced by 3 μM YC-1 for 6 h in the presence of PD98059 or KT5720. Cells were collected for the determination of ERK phosphorylation. Cells were lysed in PBS containing proteinase inhibitor and phosphatase inhibitors and sonication. Protein concentration was measured using the Bio-Rad protein assay kit (Bio-Rad Laboratories, Hercules, Calif., USA). […] The band intensities were analyzed and quantified by the Multi Gauge software (Fuji Photo Film).

[5] = system: EZH2; test: Western blot of EZH2 protein expression in MDA-MB-468 cells; type: cell-based, human; settings: inhibitor pretreatment, then 3 μM YC-1 for 6 h
Experimental: Cells were harvested and performed with western blotting analysis. […] The levels of protein expression were quantitated and shown under blots. (C) Cells were transfected with EZH2 shRNA for 0, 1, 2, 3, and 4 days and collected for determination of cell viability (left) and protein expression (right). (D)(E) After 4 days of EZH2 knockdown, cells were incubated with 3 μM YC-1 for 4 h and detected cell viability (D) and protein contents (E). (F) Tumor specimens were isolated and protein was extracted for western blot analysis.
Cells were lysed in PBS containing proteinase inhibitor and phosphatase inhibitors and sonication. Protein concentration was measured using the Bio-Rad protein assay kit (Bio-Rad Laboratories, Hercules, Calif., USA). Lysate protein was separated by electrophoresis of SDS-PAGE and transferred to Immobilon P membrane (EMD Millipore). The membranes were incubated with appropriate primary antibodies and horseradish peroxidase-conjugated secondary antibodies (EMD Millipore). The signaling was visualized using Chemiluminescence substrate kit (EMD Millipore) and collected by the Luminesence image analyzer, LAS4000 (Fuji Photo Film Co., Tokyo, Japan). The band intensities were analyzed and quantified by the Multi Gauge software (Fuji Photo Film).

[6] = system: MDA-MB-468; test: MTT cell viability assay; type: cell-based, human; settings: inhibitor pretreatment, then 3 μM YC-1 for 6 h
Experimental: (A) Cells were treated with indicated concentration of YC-1 for 6, 24, and 48 h. Cell viability was determined by MTT method. (B) MDA-MB-468 cells were treated with 3 μM YC-1 for 0, 6, and 12 h, and then stained with fluorescence diacetate (FDA) and propidium iodide (PI). Cell morphology was assessed by fluorescence microscopy with magnification ×20 (upper 3 rows) or ×40 (lowest row). (C) MDA-MB-468 cells were treated with 3 μM YC-1 for 24 h, cells were lysed and subjected to western blot analysis described in Materials and Methods. β-actin is a loading control. Blots were representative of results from three independent experiments. (D) Cells were treated with vehicle (DMSO, as control) or 3 μM YC-1 for 6 h. The cell cycles were analyzed by flow cytometry. (E) Cells were treated with indicated concentration of YC-1 and then performed with clonogenic assay.
Human breast cancer cells, MDA-MB-468, MDA-MB-157, MDA-MB-231, MDA-MB-453, and Hs578T, and immortalized mammary epithelial cell lines, 184A1 and MCF-10A, were obtained from American Type Culture Collection (Manassas, Va., USA). MDA-MB-468, MDA-MB-157, MDA-MB-231, and MDA-MB-453 were cultured in DMEM/F12 medium supplemented with 10% FBS, 100 U/ml penicillin, and 100 μg/ml streptomycin. Hs578T was cultured in RPMI 1640 medium containing 10% FBS, 2 mM L-glutamine, 100 U/ml penicillin, and 100 μg/ml streptomycin. 184A1 and MCF-10A were cultured in DMEM/F12 medium supplemented with 5% horse serum, 0.5 μg/ml hydrocortisone, 10 μg/ml insulin, 20 ng/ml epidermal growth factor, 0.1 μg/ml cholera enterotoxin, 2 mM L-glutamine, 100 U/ml penicillin, and 100 μg/ml streptomycin. All cells were maintained in a humidified incubator containing 5% CO2. For hypoxia treatment, cells were incubated in a chamber flushed with 1% 02, 5% CO2, and 94% N2 at 37° C.
Cell viability was measured by 3-(4,5-Dimethyl-2-thiazolyl)2,5-diphenyl-2H-tetrazolium bromide (MTT) assay.

SMILES | tumor growth ([1]; 20, 40, and 80 mg/kg orally) | body weights of mice ([1]; 20, 40, and 80 mg/kg/day oral) | tumor weight ([1]; 20, 40, and 80 mg/kg/day oral) | conversion of prodrug into active form [2] | effect of inhibitor on YC-1-induced EZH2 ubiquitination [3] | effect of inhibitor on ERK phosphorylation [4] | effect of inhibitor on YC-1-induced EZH2 inhibition [5] | effect of inhibitor on YC-1-induced inhibition of cell viability [6]
O=C(O)CCC(=O)OCc1ccc(-c2nn(Cc3ccccc3)c3ccccc23)o1 [YC-1-succinate, succinic acid mono-[5-(1-benzyl-1H-indazol-3-yl)-furan-2-ylmethyl]ester] | dose-dependent inhibition | not affected | dose-dependently reduced tumor weight | quickly converted into its active form | – | – | – | –
CCCCCCOC(=O)[C@]1(O)C[C@@H]2O[C@@]1(C)n1c3ccccc3c3c4c(c5c6ccccc6n2c5c31)C(=O)NC4 [KT5720] | – | – | – | – | could be blocked | did not affect ERK phosphorylation | significantly reversed | significantly reversed
